Drawing on patent publication US10227350B2 (Gilead Sciences, Inc., priority 2016, dated 2019), this text covers IC50 for 23 molecules.

Sequence of PI3Kβ (P42338 whole entry, the tested form may be a part, canonical isoform): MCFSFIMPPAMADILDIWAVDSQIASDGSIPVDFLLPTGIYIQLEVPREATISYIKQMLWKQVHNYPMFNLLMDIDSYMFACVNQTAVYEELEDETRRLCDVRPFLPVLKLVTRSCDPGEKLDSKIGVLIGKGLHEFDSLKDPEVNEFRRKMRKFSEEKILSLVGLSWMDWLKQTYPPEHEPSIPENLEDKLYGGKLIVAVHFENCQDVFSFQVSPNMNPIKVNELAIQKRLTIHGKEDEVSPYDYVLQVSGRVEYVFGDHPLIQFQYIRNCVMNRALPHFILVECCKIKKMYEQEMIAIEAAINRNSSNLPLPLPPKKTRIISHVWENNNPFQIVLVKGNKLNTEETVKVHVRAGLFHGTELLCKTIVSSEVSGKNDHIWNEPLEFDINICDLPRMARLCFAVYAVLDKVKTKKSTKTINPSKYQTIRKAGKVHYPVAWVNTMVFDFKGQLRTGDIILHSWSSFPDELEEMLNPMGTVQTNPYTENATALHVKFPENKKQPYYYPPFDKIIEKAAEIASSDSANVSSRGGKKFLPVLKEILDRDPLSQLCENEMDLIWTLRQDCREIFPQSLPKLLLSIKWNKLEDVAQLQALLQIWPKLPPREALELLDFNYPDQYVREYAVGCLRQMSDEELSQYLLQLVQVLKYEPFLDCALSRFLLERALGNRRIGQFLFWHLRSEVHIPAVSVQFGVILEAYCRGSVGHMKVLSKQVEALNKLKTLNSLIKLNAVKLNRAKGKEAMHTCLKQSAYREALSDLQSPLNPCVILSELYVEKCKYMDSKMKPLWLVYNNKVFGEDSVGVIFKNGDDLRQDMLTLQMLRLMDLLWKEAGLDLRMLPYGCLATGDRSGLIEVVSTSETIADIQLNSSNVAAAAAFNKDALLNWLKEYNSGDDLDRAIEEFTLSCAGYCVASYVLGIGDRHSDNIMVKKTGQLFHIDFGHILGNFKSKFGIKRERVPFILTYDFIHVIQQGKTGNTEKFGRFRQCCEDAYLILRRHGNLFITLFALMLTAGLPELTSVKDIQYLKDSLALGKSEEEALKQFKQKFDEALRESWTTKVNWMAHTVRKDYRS
Sequence of PI3Kβ (P27986 whole entry partner, the tested form may be a part, canonical isoform): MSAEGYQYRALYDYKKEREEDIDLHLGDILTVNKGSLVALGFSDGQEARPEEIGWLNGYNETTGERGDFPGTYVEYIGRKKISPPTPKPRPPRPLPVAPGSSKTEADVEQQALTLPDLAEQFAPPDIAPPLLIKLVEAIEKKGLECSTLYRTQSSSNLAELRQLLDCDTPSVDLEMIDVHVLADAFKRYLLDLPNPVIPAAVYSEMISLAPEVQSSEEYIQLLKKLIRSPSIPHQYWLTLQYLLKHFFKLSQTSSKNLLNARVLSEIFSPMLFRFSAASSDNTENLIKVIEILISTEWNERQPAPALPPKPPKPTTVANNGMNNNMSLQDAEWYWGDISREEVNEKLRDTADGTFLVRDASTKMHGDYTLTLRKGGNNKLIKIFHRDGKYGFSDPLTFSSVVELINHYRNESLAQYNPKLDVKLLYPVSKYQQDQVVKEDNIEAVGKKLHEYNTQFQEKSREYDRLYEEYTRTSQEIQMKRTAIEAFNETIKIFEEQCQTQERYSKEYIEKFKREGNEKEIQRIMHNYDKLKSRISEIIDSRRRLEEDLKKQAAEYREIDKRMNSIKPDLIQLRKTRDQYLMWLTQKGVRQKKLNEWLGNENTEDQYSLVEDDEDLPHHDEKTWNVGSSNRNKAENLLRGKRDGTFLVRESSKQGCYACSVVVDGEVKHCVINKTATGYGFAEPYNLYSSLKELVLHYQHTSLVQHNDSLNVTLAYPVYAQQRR

The test has as its target PI3Kβ (Homo sapiens (Human), UniProt P42338). In words: TR-FRET enzymatic activity assay, PI3Kβ. Type of test: biochemical. The settings on record: 2× Km ATP, 2 μM PIP2, 30 minutes at 25° C., read-out: IC50-PIP-Beta. The method, then:
The compounds of formula (I) were characterized for their enzymatic activity against the PI3K isoforms. The activities were measured using a time-resolved fluorescence resonance energy transfer (TR-FRET) assay. TR-FRET monitored the formation of 3,4,5-inositol triphosphate molecule that competed with fluorescently labeled PIPS for binding to the GRP-1 pleckstrin homology domain protein.
Class I PI3K isoforms were expressed and purified as heterodimeric recombinant proteins. All assay reagents and buffers for the TR-FRET assay were purchased from Millipore. […] The compounds were added to the assay solution and incubated for 30 minutes at 25° C.
As for `Cc1nc2c(-c3nnc[nH]3)cc(-c3ccncc3)cc2n1-c1ccnc2cccc(F)c12` [Example 30, 5-fluoro-4-[2-methyl-6-pyridin-4-yl-4-(4H-1,2,4-triazol-3-yl)benzimidazol-1-yl]quinoline], the IC50 worked out at 8 nM.
Consider `Nc1nccc(-c2cc(-c3nnc[nH]3)c3nc(C4CC4)n(-c4ccnc5c(F)ccc(F)c45)c3c2)c1F` [Example 81, 4-[2-cyclopropyl-3-(5,8-difluoroquinolin-4-yl)-7-(4H-1,2,4-triazol-3-yl)benzimidazol-5-yl]-3-fluoropyridin-2-amine], for which the half-inhibitory concentration (IC50) turned out to be 15 nM.
The value for `Cc1nc2c(-c3nnc[nH]3)cc(-c3ccnc(N)c3F)cc2n1-c1ccnc2cc(F)cc(F)c12` [Example 160, 4-(1-(5,7-difluoroquinolin-4-yl)-2-methyl-4-(4H-1,2,4-triazol-3-yl)-1H-benzo[d]imidazol-6-yl)-3-fluoropyridin-2-amine] was 7 nM; that for `Cc1nnc(-c2cc(-c3ccnc(N)c3F)cc3c2nc(C)n3-c2ccnc3c(F)ccc(F)c23)[nH]1` [Example 97, 4-[3-(5,8-difluoroquinolin-4-yl)-2-methyl-7-(5-methyl-4H-1,2,4-triazol-3-yl)benzimidazol-5-yl-]3-fluoropyridin-2-amine] was 31 nM.
As to `Cc1nc2c(-c3nnc[nH]3)cc(-c3ccnc(C#N)c3)cc2n1-c1ccnc2cc(F)cc(F)c12` [Example 143, 4-(1-(5,7-difluoroquinolin-4-yl)-2-methyl-4-(4H-1,2,4-triazol-3-yl)-1H-benzo[d]imidazol-6-yl)picolinonitrile], the 50% inhibitory concentration (IC50) is 6 nM.
Consider `Cc1nc2c(-c3nnc[nH]3)cc(-c3ccncc3)cc2n1-c1ccnc2c(F)ccc(F)c12` [Example 28, 5,8-difluoro-4-[2-methyl-6-pyridin-4-yl-4-(4H-1,2,4-triazol-3-yl)benzimidazol-1-yl]quinoline], for which the half-inhibitory concentration (IC50) came to 6 nM.
With `Nc1nccc(-c2cc(-c3nnc[nH]3)c3nc(CC4CC4)n(-c4ccnc5c(F)ccc(F)c45)c3c2)c1F` [Example 96, 4-[2-(cyclopropylmethyl)-3-(5,8-difluoroquinolin-4-yl)-7-(4H-1,2,4-triazol-3-yl)benzimidazol-5-yl]-3-fluoropyridin-2-amine] the figure was 7 nM; with `Cc1nc2c(-c3nnc[nH]3)cc(-c3ccnc(C#N)c3)cc2n1-c1ccnc2c(F)ccc(Cl)c12` (single isomer, unassigned) [Example 124, 4-(1-(5-chloro-8-fluoroquinolin-4-yl)-2-methyl-4-(4H-1,2,4-triazol-3-yl)-1H-benzo[d]imidazol-6-yl)picolinonitrile], 160 nM.
The value for `CCc1nc2c(-c3nnc[nH]3)cc(-c3ccnc(N)c3)cc2n1-c1ccnc2c(F)ccc(F)c12` [Example 70, 4-[3-(5,8-difluoroquinolin-4-yl)-2-ethyl-7-(4H-1,2,4-triazol-3-yl)benzimidazol-5-yl]pyridin-2-amine] was 13 nM; that for `Cc1nc2c(C(N)=O)cc(-c3cc(N)ncn3)cc2n1-c1ccnc2c(Cl)cccc12` [Example 21, 6-(6-aminopyrimidin-4-yl)-1-(8-chloroquinolin-4-yl)-2-methylbenzimidazole-4-carboxamide] was 1300 nM; that for `Cc1cc(-c2cc(-c3nnc[nH]3)c3nc(C)n(-c4ccnc5c(F)ccc(F)c45)c3c2)ccn1` (single isomer, unassigned) [Example 142, 5,8-difluoro-4-(2-methyl-6-(2-methylpyridin-4-yl)-4-(4H-1,2,4-triazol-3-yl)-1H-benzo[d]imidazol-1-yl)quinoline] was 11 nM.
The value for `Cc1nc2c(-c3nnc[nH]3)cc(-c3ccnc(N)c3F)cc2n1-c1c(Cl)cnc2c(F)cccc12` [Example 92, 4-[3-(3-chloro-8-fluoroquinolin-4-yl)-2-methyl-7-(4H-1,2,4-triazol-3-yl)benzimidazol-5-yl]-3-fluoropyridin-2-amine] was 51 nM; that for `Cc1nc2c(-c3nnc[nH]3)cc(-c3ccnc(N)c3F)cc2n1-c1ccnc2c(F)ccc(F)c12` (atropisomer, axis not shown) [Example 106, 4-[3-(5,8-difluoroquinolin-4-yl)-2-methyl-7-(4H-1,2,4-triazol-3-yl)benzimidazol-5-yl]-3-fluoropyridin-2-amine] was 3 nM; that for `Cc1nc2c(-c3nnc[nH]3)cc(-c3ccnc(C#N)c3)cc2n1-c1ccnc2cc(F)cc(F)c12` (single isomer, unassigned) [Example 116, 4-(1-(5,7-difluoroquinolin-4-yl)-2-methyl-4-(4H-1,2,4-triazol-3-yl)-1H-benzo[d]imidazol-6-yl)picolinonitrile] was 30 nM.
Turning to `CCCc1nc2c(-c3nnc[nH]3)cc(-c3ccnc(N)c3)cc2n1-c1ccnc2c(Cl)ccc(F)c12` [Example 63, 4-[3-(8-chloro-5-fluoroquinolin-4-yl)-2-propyl-7-(4H-1,2,4-triazol-3-yl)benzimidazol-5-yl]pyridin-2-amine], the half-inhibitory concentration (IC50) came out at 7 nM.
For `Cc1nc2c(-c3nnc[nH]3)cc(-c3ccnc(N)c3)cc2n1-c1ccnc2c(F)cccc12` [Example 61, 4-[3-(8-fluoroquinolin-4-yl)-2-methyl-7-(4H-1,2,4-triazol-3-yl)benzimidazol-5-yl]pyridin-2-amine], the IC50 amounted to 35 nM.
With `Cc1nc2c(-c3nnc[nH]3)cc(-c3ccnc(F)c3F)cc2n1-c1ccnc2c(F)ccc(F)c12` [Example 42, 4-[6-(2,3-difluoropyridin-4-yl)-2-methyl-4-(4H-1,2,4-triazol-3-yl)benzimidazol-1-yl]-5,8-difluoroquinoline], the IC50 came to 10 nM.
The value for `Cc1nccc(-c2cc(-c3nnc[nH]3)c3nc(C)n(-c4ccnc5c(F)ccc(F)c45)c3c2)n1` [Example 156, 5,8-difluoro-4-(2-methyl-6-(2-methylpyrimidin-4-yl)-4-(4H-1,2,4-triazol-3-yl)-1H-benzo[d]imidazol-1-yl)quinoline] was 12 nM; that for `Cc1nc2c(-c3nnc[nH]3)cc(-c3c(F)cnc(N)c3F)cc2n1-c1ccnc2c(F)ccc(F)c12` [Example 100, 4-[3-(5,8-difluoroquinolin-4-yl)-2-methyl-7-(4H-1,2,4-triazol-3-yl)benzimidazol-5-yl]-3,5-difluoropyridin-2-amine] was 320 nM; that for `Cc1nc2c(C(N)=O)cc(-c3cc(N)nc(N)n3)cc2n1-c1ccnc2c(Cl)cccc12` [Example 22, 1-(8-chloroquinolin-4-yl)-6-(2,6-diaminopyrimidin-4-yl)-2-methylbenzimidazole-4-carboxamide] was 1100 nM.
The value for `Cc1nc2c(C(N)=O)cc(-c3ncnc4[nH]cnc34)cc2n1-c1ccnc2c(Cl)cccc12` [Example 20, 1-(8-chloroquinolin-4-yl)-2-methyl-6-(9H-purin-6-yl)benzimidazole-4-carboxamide] was 1100 nM.
As to `Cc1nc2c(-c3nnc[nH]3)cc(-c3cc(N)ncn3)cc2n1-c1ccnc2c(Cl)cccc12` [Example 59, 6-[3-(8-chloroquinolin-4-yl)-2-methyl-7-(4H-1,2,4-triazol-3-yl)benzimidazol-5-yl]pyrimidin-4-amine], the half-inhibitory concentration (IC50) came to 270 nM.
With `CCc1nc2c(-c3nnc[nH]3)cc(-c3ccnc(N)c3)cc2n1-c1ccnc2cccc(F)c12` [Example 54, 4-[2-ethyl-3-(5-fluoroquinolin-4-yl)-7-(4H-1,2,4-triazol-3-yl)benzimidazol-5-yl]pyridin-2-amine] the figure was 36 nM.
